According to publication PMC4880513 (Journal of natural products, 2015):
Entries after “also recorded” stand apart in the source; their conditions may differ. Read-outs that look alike come from different tables or passages of the source. Marks after values point to notes of the source that are not given here.

Legend:
[1] = target: full-length human cannabinoid-2 receptor (Homo sapiens, UniProt P34972); assay: CB2 receptor radioligand binding assay
[2] = target: full-length human cannabinoid-1 receptor (Homo sapiens, UniProt P21554); conditions: radioligand binding
Chain of full-length human cannabinoid-1 receptor (P21554 whole entry): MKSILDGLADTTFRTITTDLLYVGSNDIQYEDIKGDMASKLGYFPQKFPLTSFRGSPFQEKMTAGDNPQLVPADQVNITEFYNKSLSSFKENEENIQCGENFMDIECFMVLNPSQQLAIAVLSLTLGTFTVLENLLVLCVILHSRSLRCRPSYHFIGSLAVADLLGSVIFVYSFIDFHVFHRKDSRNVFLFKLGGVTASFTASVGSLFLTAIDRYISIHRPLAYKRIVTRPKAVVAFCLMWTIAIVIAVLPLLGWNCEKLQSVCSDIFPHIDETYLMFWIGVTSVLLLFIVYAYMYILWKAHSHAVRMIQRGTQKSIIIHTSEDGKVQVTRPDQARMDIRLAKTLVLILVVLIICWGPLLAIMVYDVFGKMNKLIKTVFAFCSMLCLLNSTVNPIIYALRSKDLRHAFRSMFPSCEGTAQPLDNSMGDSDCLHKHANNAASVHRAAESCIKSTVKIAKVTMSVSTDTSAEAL

CB2 receptor = CB2 receptor (Homo sapiens, UniProt P34972); assay: functional assays at CB2 receptor; type: biochemical; conditions: result in words
Chain of CB2 receptor (P34972 whole entry): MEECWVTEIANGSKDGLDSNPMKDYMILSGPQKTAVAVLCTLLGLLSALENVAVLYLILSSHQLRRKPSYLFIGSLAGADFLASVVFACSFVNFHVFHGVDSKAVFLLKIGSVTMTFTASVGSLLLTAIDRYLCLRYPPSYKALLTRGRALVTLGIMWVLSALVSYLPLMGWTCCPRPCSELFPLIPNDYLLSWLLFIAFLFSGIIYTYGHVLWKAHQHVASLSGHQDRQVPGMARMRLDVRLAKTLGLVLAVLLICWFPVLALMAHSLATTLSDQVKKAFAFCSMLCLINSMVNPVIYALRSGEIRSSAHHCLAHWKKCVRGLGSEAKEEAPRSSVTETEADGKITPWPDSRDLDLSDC

Male Swiss Webster mice [3] = assay: mouse tetrad assay: overall cannabimimetic action; conditions: ip, result in words
CB1 receptor = CB1 receptor (Homo sapiens, UniProt P21554); assay: functional assays at CB1 receptor; type: biochemical; conditions: result in words
Chain of CB1 receptor (P21554 whole entry): as the sequence (P21554 whole entry) above

Male Swiss Webster mice [4] = assay: mouse tetrad assay: rectal temperature; conditions: difference between basal and postinjection temperatures, mean ± SEM
Male Swiss Webster mice [5] = assay: mouse tetrad assay: tail-flick latency; conditions: cutoff 15 s, mean ± SEM
Male Swiss Webster mice [6] = assay: mouse tetrad assay: locomotor activity; conditions: for locomotor activity: total photobeam interruptions, last 10 min of 30 min, mean ± SEM; for hypolocomotive activity: ip, across doses, result in words
Male Swiss Webster mice [7] = assay: mouse tetrad assay: catalepsy; conditions: latency to drop, cutoff 180 s, mean ± SEM
Male Swiss Webster mice [8] = assay: mouse tetrad assay: hot-plate latency; conditions: cutoff 45 s, mean ± SEM

Chain of full-length human cannabinoid-2 receptor (P34972 whole entry): as the sequence (P34972 whole entry) above

How did the “binding affinity (nM) CB2” value [1] turn out when `CCCCCc1cc(O)c2c(c1)OC(C)(C)[C@@H]1CC=C(C)[C@H](O)[C@@H]21` [Compound 3, 10α-hydroxy-Δ^8-tetrahydrocannabinol] was run?
Its value is “nearly as tightly as THC”.

And the “binding affinity (nM) CB1” value [2]?
Its value is “nearly as tightly as THC”.

And the “binding affinity (nM) CB1” value ([2]; listed as compound 3)?
The value was “highest affinity”.

And the “functional activity at CB2 receptor” value (CB2 receptor)?
The value was “partial agonist”.

What about the “cannabimimetic-like action in the mouse tetrad assay” value (Male Swiss Webster mice [3]; at the doses tested) of the same compound?
The value was “most potent cannabimimetic-like actions; also recorded: typical cannabimimetic actions”.

What about the “functional activity at CB1 receptor” value (CB1 receptor) of the same compound?
Its value is “partial agonist”.

And the “functional activity at CB1 receptor” value (CB1 receptor; listed as compound 3)?
The value was “partial CB1 agonist”.

How did the “decrease in rectal temperature (°C)” value (Male Swiss Webster mice [4]; 5 mg/kg ip) turn out when `CCCCCc1cc(O)c2c(c1)OC(C)(C)[C@@H]1CC=C(C)C[C@@H]21` [Δ^8-THC, Δ^8-tetrahydrocannabinol] was run?
Its value is 0.12 ± 0.09 °C.

What about the “decrease in rectal temperature (°C)” value (Male Swiss Webster mice [4]; 20 mg/kg ip) of the same compound?
Its value is 1.96 ± 0.37 ^a °C.

For `CCCCCc1cc(O)c2c(c1)OC(C)(C)[C@@H]1CC[C@@]3(C)O[C@H]3[C@@H]21` [Compound 6, 9β,10β-epoxyhexahydrocannabinol], which “cannabimimetic-like action in the mouse tetrad assay” value (Male Swiss Webster mice [3]; at the doses tested) is on record?
The value was “most potent cannabimimetic-like actions”.

How did the “tail-flick latency (% MPE)” value (Male Swiss Webster mice [5]; 10 mg/kg ip) turn out when “(−)-trans-Δ^9-tetrahydrocannabinol [Δ^9-THC]” was run?
The value was 6.52 ± 2.00 % MPE.

What about the “tail-flick latency (% MPE)” value (Male Swiss Webster mice [5]; 20 mg/kg ip) of the same compound?
The value was 42.21 ± 17.04 ^b % MPE.

And the “tail-flick latency (% MPE)” value (Male Swiss Webster mice [5]; 40 mg/kg ip)?
The value was 51.96 ± 13.22 ^c % MPE.

And the locomotor activity (Male Swiss Webster mice [6]; 10 mg/kg ip)?
The locomotor activity was 190.9 ± 33.8 ^c.

And the locomotor activity (Male Swiss Webster mice [6]; 20 mg/kg ip)?
Its locomotor activity is 276.2 ± 52.6 ^c.

And the locomotor activity (Male Swiss Webster mice [6]; 40 mg/kg ip)?
Its locomotor activity is 194.0 ± 49.2 ^c.

What about the “catalepsy latency” value (Male Swiss Webster mice [7]; 10 mg/kg ip) of the same compound?
The value was 14.4 ± 4.16 s.

And the “catalepsy latency (s)” value (Male Swiss Webster mice [7]; 20 mg/kg ip)?
The value was 47.9 ± 20.04 ^b s.

And the “catalepsy latency (s)” value (Male Swiss Webster mice [7]; 40 mg/kg ip)?
Its value is 37.7 ± 14.64 ^a s.

What about the “decrease in rectal temperature (°C)” value (Male Swiss Webster mice [4]; 10 mg/kg ip) of the same compound?
Its value is 2.05 ± 0.25 °C.

What about the “decrease in rectal temperature (°C)” value (Male Swiss Webster mice [4]; 20 mg/kg ip) of the same compound?
Its value is 4.25 ± 0.78 ^c °C.

And the “decrease in rectal temperature (°C)” value (Male Swiss Webster mice [4]; 40 mg/kg ip)?
Its value is 4.80 ± 0.28 ^c °C.

What about the “hot-plate latency (% MPE)” value (Male Swiss Webster mice [8]; 10 mg/kg ip) of the same compound?
Its value is 29.04 ± 5.37 ^c % MPE.

And the “hot-plate latency (% MPE)” value (Male Swiss Webster mice [8]; 20 mg/kg ip)?
Its value is 46.85 ± 9.08 ^c % MPE.

And the “hot-plate latency (% MPE)” value (Male Swiss Webster mice [8]; 40 mg/kg ip)?
Its value is 38.18 ± 4.05 ^c % MPE.

What does the source list for `CCCCCc1cc(O)c2c(c1)OC(C)(C)[C@@H]1C[C@@H](O)C(C)=C[C@@H]21` [Compound 2, 8β-hydroxy-Δ^9-tetrahydrocannabinol]?
hypolocomotive activity (Male Swiss Webster mice [6]): dose-dependent hypolocomotive effect only; hypolocomotive activity (Male Swiss Webster mice [6]; listed as compound 2): significant dose-dependent hypolocomotive activity; cannabimimetic-like action in the mouse tetrad assay (Male Swiss Webster mice [3]; at the doses tested): lacked any cannabimimietic activity; cannabimimetic-like action in the mouse tetrad assay (Male Swiss Webster mice [3]; doses up to 20 mg/kg): lacked typical cannabimimetic-like action

What does the source list for `CCCCCc1cc(O)c2c(c1)OC(C)(C)[C@@H]1CC=C(C)[C@@H](O)[C@@H]21` [Compound 4, 10β-hydroxy-Δ^8-tetrahydrocannabinol]?
effects in the mouse tetrad assay (Male Swiss Webster mice [3]; 40 mg/kg (highest tested dose), 40 mg/kg): hypothermic and antinociceptive activity; cannabimimetic-like action in the mouse tetrad assay (Male Swiss Webster mice [3]; at the doses tested): partial cannabimimetic action

For `CCCCCc1cc(O)c2c(c1)OC(C)(C)[C@@H]1C[C@H](O)C(C)=C[C@@H]21` [Compound 1, 8α-hydroxy-Δ^9-tetrahydrocannabinol], which “cannabimimetic activity in the mouse tetrad assay” value (Male Swiss Webster mice [3]; dose of 20 mg/kg) is on record?
Its value is “did not exhibit typical cannabimimetic activity”.
